Holding throughout (test): relative viability (nuclei count vs DMSO), 5 days (fraction); higher = more cells survive
Compound in assay [1]: C1CSC2=C(C(=O)N1)SC3=C2C=C(C=C3)O [kb NB 142-70] + COc1cccc2cc(-c3nc([C@H]4CC[C@H](C(=O)O)CC4)n4ncnc(N)c34)[nH]c12 [OSI-027] (partner 0.5 µM)
In outline: (§1)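 Lung cancer cell lines, seeded in 1536-well plates, were treated the following day by pin tool with a single drug or with five library-drug doses (not always all listed) in √10 steps on top of a fixed anchor-drug dose. Cells were fixed and nuclei stained in one step after 5 days, and nuclei were counted. Relative viability is the nuclei count for treated wells divided by that for vehicle wells, reported as medians of duplicate plates.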

Compound in assay [2]: NCC(=O)Nc1ccc(-n2nc(C(F)(F)F)cc2-c2ccc3c(ccc4ccccc43)c2)cc1 + COc1cc2c(Oc3ccc(NC(=O)C4(C(=O)Nc5ccc(F)cc5)CC4)cc3F)ccnc2cc1OCCCN1CCOCC1 [Foretinib] (partner 0.25 µM)
In outline:
as §1

Compound in assay [3]: C1CSC2=C(C(=O)N1)SC3=C2C=C(C=C3)O [kb NB 142-70] + CC(C)C[C@H](NC(=O)[C@H](Cc1ccccc1)NC(=O)c1cnccn1)B(O)O [Bortezomib] (partner 0.002 µM)
In outline:
as §1

Turning to UMC-11, the relative viability in assay [1] (first compound 0.1 µM) is 0.463; in assay [1] (first compound 1 µM), 0.468; in assay [1] (first compound 3.162 µM), 0.298; in assay [2] (first compound 0.02 µM) it was 0.974; in assay [2] (first compound 0.06325 µM), 1.04; in assay [2] (first compound 0.2 µM) it was 1.06. The relative viability amounted to 1.01 in assay [2] (first compound 0.6325 µM); 1.11 in assay [2] (first compound 2 µM); 0.667 in assay [3] (first compound 0.1 µM); 0.806 in assay [3] (first compound 1 µM); 0.703 in assay [3] (first compound 3.162 µM).

The values above are taken from the supplement of paper PMC10307832.
